Columns and labels:
Nitric oxide synthase 1 = Nitric oxide synthase 1 (Homo sapiens, UniProt P29475); assay: Inhibitory constant for the inhibition of human Neuronal nitric oxide synthase
Nitric oxide synthase 3 = biological target: T1, Nitric oxide synthase 3 (Homo sapiens, UniProt P29474); assay: Inhibitory constant for the inhibition of human Endothelial nitric oxide synthase
T1 sequence (P29474 whole entry): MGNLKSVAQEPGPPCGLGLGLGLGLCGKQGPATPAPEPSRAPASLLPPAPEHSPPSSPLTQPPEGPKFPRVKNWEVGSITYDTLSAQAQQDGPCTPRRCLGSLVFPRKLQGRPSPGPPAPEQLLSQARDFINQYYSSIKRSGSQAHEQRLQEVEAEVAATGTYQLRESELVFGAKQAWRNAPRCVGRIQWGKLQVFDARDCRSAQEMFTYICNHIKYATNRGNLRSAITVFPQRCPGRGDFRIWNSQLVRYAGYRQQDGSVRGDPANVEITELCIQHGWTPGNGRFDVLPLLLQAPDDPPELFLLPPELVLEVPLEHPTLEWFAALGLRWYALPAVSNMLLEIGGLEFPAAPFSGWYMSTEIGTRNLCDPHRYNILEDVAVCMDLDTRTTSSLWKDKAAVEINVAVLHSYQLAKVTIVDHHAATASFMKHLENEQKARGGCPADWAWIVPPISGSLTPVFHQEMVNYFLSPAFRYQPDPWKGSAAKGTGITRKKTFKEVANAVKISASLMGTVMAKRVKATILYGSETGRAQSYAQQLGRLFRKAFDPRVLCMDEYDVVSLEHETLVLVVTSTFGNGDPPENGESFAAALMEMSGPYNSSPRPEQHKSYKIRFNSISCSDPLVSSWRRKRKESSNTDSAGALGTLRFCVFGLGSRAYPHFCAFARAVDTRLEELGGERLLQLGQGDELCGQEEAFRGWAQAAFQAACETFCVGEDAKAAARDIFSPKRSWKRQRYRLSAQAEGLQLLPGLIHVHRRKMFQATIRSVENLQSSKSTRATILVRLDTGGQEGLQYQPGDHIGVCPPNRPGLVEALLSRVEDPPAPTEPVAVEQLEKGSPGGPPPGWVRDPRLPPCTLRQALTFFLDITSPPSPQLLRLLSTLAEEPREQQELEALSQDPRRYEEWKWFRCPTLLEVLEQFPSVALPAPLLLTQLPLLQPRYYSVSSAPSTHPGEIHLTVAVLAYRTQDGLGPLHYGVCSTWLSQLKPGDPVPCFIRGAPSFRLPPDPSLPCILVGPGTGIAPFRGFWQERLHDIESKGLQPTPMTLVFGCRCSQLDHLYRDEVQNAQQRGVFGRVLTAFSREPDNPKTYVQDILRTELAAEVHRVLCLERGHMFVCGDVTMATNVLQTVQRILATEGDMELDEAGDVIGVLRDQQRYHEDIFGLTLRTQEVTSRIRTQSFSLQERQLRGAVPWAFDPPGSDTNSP

[1] = biological target: Nitric oxide synthase, inducible (Homo sapiens, UniProt P35228); assay: Inhibitory constant for the inhibition of human Inducible nitric oxide synthase
Chain of Nitric oxide synthase, inducible (P35228 whole entry): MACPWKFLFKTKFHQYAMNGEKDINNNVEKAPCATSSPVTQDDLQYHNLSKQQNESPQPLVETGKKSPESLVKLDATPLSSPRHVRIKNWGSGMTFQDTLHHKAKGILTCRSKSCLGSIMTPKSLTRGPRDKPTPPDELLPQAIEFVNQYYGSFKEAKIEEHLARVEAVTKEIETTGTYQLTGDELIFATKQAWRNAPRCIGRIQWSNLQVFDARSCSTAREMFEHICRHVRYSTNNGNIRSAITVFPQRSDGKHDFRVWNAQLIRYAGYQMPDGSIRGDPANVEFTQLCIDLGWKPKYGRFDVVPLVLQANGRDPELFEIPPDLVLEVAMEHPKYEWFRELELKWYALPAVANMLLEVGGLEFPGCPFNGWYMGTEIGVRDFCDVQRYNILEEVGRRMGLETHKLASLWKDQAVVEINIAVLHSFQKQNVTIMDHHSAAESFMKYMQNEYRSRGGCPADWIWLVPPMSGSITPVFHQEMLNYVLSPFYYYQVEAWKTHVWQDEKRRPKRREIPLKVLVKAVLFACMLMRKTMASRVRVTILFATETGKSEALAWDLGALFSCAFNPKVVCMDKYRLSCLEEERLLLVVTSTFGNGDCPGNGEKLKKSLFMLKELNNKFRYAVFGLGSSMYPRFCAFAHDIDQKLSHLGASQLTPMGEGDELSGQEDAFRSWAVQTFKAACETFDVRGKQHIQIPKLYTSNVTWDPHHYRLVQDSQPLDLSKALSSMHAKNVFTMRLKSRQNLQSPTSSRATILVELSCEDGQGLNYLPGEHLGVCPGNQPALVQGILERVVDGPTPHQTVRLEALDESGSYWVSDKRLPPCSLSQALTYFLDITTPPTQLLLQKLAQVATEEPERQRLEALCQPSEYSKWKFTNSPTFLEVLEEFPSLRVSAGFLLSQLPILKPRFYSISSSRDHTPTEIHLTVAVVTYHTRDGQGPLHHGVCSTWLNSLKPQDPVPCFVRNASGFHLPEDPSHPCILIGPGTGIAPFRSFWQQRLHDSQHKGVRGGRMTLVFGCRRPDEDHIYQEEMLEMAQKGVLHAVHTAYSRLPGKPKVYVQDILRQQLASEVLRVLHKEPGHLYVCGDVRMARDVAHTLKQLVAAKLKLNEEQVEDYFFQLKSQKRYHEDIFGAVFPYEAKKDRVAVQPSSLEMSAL

Chain of Nitric oxide synthase 1 (P29475 whole entry): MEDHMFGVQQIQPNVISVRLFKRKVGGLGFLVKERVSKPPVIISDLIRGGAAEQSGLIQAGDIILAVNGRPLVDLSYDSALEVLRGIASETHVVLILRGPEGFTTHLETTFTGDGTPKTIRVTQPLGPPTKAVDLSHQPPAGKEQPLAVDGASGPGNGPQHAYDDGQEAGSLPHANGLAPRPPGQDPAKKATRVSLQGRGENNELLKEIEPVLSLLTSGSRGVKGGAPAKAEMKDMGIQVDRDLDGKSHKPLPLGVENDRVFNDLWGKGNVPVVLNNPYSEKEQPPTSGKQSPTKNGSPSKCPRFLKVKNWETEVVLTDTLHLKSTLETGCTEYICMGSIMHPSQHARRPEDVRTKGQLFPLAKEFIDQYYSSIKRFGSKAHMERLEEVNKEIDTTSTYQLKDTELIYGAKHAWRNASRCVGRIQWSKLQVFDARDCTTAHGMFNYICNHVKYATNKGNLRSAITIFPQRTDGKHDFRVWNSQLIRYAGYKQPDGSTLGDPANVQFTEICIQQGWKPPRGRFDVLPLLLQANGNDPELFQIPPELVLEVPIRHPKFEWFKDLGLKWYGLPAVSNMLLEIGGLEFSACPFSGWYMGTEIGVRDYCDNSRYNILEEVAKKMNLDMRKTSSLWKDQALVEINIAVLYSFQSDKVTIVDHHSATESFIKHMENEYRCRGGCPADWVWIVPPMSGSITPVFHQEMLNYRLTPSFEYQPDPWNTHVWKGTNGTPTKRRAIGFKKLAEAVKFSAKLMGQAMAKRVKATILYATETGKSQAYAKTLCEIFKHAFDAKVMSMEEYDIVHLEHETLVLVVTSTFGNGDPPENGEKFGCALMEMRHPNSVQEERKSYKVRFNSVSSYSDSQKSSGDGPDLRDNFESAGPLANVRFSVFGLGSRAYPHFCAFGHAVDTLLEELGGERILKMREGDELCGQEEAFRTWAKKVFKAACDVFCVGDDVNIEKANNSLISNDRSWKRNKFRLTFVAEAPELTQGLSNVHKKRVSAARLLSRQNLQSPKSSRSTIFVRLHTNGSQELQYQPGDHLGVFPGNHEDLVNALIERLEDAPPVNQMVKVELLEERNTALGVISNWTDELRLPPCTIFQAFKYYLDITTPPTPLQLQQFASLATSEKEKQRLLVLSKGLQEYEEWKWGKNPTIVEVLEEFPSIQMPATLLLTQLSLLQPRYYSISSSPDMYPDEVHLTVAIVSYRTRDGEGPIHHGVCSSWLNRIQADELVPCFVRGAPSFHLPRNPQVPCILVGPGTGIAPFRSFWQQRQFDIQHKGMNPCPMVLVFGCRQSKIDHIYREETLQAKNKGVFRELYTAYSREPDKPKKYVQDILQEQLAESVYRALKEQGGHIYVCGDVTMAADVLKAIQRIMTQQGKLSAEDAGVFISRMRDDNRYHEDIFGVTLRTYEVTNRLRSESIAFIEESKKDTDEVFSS

SMILES	Ki (Nitric oxide synthase 1) [nM]	Ki (Nitric oxide synthase 3) [nM]	Ki [1] [nM]
NC(N)=Nc1ccccc1CC(N)C(=O)O (stereo not given)	370	250	2600
CNC(N)=Nc1cccc(CC(N)C(=O)O)c1 (stereo not given)	8400	8800	96000
C/N=C(/N)Nc1ccccc1CC(N)C(=O)O (stereo not given)	410	270	600
CC(=N)NCCC[C@H](N)C(=O)O [L-NIO]	–	810	340

Further lines, results first:

Ki (Nitric oxide synthase 1) [nM]	Ki (Nitric oxide synthase 3) [nM]	Ki [1] [nM]	SMILES
29000	39000	82000	CC(=N)Nc1cccc(CC(N)C(=O)O)c1 (stereo not given)
44000	46000	100000	N=C(N)Nc1cccc(CC(N)C(=O)O)c1 (stereo not given)
1300	1600	1900	CC(=N)Nc1ccccc1CC(N)C(=O)O (stereo not given)

Source: ChEMBL document CHEMBL1130474, “Conformationally restricted arginine analogues as inhibitors of human nitric oxide synthase” (Bioorg Med Chem Lett, 1997)
